Measured values taken from patent US20250163032A1, “NOVEL MOLECULES AS INHIBITORS OF DNA DAMAGE REPAIR PATHWAY” (VRise Therapeutics, Inc., priority 2023, published 2025).

Molecular target: USP1/UAF1 (Homo sapiens, UniProt O94782)
Assay: USP1/UAF 1 assay (ubiquitin-rhodamine110 fluorometric deubiquitinase assay)
Assay type: biochemical
Conditions: for IC50: 1 nM USP1/UAF1, 150 nM Ub-Rho, read-out: Biochemical assay IC50; for inhibition at 1 µM: read-out: Biochemical assay % inhibition @1 μM; for inhibition at 10 µM: read-out: Biochemical assay % inhibition @10 μM
Description: Test-1: USP1/UAF 1 Assay:
Deubiquitinase activity of USP1/UAF1 was monitored in a fluorometric assay using ubiquitin-rhodamine110 as substrate. Briefly, enzymatic reactions were conducted in an assay buffer composed of 50 mM HEPES, pH 7.8, 0.5 mM EDTA, 100 mM NaCl, 1 mM TCEP, 0.1 mg/mL BSA, and 0.01% Tween-20 that contained 1 nM USP1/UAF1. Compounds were tested at desired concentrations. The plates were incubated for 15 min to attain equilibrium, and then the enzymatic reaction was initiated by dispensing 150 nM Ub-Rho solution. Fluorescence measurement was performed in a high throughput CCD imager, where kinetic measurements of rhodamine fluorescence were acquired using a 480 nm excitation/540 nm emission filter set. The change in fluorescence intensity over a 5-minute reaction period (typically associated with less than 10% substrate conversion) was normalized against no-inhibitor and no-enzyme controls and the resulting percent inhibition data were fitted to a sigmoidal dose response using a four-parameter Hill equation. Data was be analysed and percent inhibition and/or IC50 for each test compound is calculated accordingly.

Sequence of USP1/UAF1 (O94782 whole entry): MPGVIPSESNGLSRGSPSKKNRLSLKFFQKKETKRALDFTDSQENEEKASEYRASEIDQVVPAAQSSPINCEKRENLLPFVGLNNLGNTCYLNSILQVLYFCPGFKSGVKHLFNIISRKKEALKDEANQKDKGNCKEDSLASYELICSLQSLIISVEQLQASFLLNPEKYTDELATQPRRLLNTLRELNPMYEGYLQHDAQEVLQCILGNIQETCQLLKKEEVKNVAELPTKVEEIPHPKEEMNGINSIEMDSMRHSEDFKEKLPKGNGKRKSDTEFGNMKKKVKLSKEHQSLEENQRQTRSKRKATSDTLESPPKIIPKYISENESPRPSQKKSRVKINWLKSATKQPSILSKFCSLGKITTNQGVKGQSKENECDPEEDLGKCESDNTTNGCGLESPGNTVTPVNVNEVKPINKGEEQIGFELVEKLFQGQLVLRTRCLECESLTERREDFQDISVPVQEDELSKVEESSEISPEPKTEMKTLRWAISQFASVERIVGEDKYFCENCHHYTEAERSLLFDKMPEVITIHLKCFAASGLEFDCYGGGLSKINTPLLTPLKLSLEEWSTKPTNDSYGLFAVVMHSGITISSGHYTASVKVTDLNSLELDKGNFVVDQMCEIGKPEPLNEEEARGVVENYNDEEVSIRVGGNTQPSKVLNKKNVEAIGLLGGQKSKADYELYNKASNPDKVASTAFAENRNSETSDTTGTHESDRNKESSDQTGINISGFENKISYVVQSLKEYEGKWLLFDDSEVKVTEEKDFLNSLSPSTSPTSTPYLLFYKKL
Sequence of USP1/UAF1 (Q8TAF3 whole entry partner): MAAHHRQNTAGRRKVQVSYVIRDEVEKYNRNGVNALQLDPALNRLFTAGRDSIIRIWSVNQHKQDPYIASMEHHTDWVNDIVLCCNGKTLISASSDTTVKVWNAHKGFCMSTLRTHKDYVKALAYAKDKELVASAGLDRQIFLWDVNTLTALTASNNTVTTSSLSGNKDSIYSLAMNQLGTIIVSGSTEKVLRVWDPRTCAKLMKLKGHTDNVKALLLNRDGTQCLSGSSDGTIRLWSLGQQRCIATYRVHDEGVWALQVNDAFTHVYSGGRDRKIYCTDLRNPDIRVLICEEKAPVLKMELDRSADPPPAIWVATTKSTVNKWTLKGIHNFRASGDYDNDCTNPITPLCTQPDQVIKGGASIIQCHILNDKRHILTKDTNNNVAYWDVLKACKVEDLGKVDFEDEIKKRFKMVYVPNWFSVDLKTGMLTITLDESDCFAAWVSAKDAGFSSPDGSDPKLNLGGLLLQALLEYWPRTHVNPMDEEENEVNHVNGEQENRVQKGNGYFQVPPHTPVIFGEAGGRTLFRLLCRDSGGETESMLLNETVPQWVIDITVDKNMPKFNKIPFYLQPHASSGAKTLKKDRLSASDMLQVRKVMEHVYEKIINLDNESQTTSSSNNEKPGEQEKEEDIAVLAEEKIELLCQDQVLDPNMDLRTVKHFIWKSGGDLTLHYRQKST

SMILES	inhibition at 1 µM	further results
CC(C)c1ccccc1-c1cc2nccn2c(NCc2ccc(-c3nc(C(F)(F)F)cn3C)cc2)n1 [Example 7, 7-(2-isopropylphenyl)-N-(4-(1-methyl-4-(trifluoromethyl)-1H-imidazol-2-yl)benzyl)imidazo[1,2-c]pyrimidin-5-amine]		IC50: 100 to 1000 nM
CC(C)c1ccccc1-c1nc(NCc2ccc(-c3nc(C(F)(F)F)cn3C)cc2)c2[nH]cnc2n1 [Example 15, 2-(2-isopropylphenyl)-N-(4-(1-methyl-4-(trifluoromethyl)-1H-imidazo-2-yl)benzyl)-7H-purin-6-amine]		IC50: < 50 nM
Cn1cc(C(F)(F)F)nc1-c1ccc(CNc2nc(Cl)nc3c2ncn3C2CCCCO2)cc1 (stereo not drawn) [Example 17, 2-chloro-N-(4-(1-methyl-4-(trifluoromethyl)-1H-imidazol-2-yl)benzyl)-9-(tetrahydro-2H-pyran-2-yl)-9H-purin-6-amine]	> 75%	
CC(C)c1ccccc1-c1nc(NCc2ccc(-c3nc(C(F)(F)F)cn3C)cc2)c2ncn(C3CCCCO3)c2n1 (stereo not drawn) [Example 18, 2-(2-isopropylphenyl)-N-(4-(1-methyl-4-(trifluoromethyl)-1H-imidazol-2-yl)benzyl)-9-(tetrahydro-2H-pyran-2-yl)-9H-purin-6-amine]		Biochemical assay % inhibition @1 μM (@1 μM): B+++
CC(C)c1ccccc1-c1nc2c(c(NCc3ccc(-c4nc(C(F)(F)F)cn4C)cc3)c1C#N)CCC2 [Example 20, 2-(2-isopropylphenyl)-4-((4-(1-methyl-4-(trifluoromethyl)-1H-imidazol-2-yl)benzyl)amino)-6,7-dihydro-5H-cyclopenta[b]pyridine-3-carbonitrile]		IC50: 100 to 1000 nM
COc1cccc(F)c1-c1nc(NCc2ccc(-c3nc(C(F)(F)F)cn3C)cc2)c2[nH]cnc2n1 [Example 30, 2-(2-fluoro-6-methoxyphenyl)-N-(4-(1-methyl-4-(trifluoromethyl)-1H-imidazol-2-yl)benzyl)-7H-purin-6-amine]		inhibition at 10 µM: > 75%
COc1ccncc1-c1nc(NCc2ccc(-c3nc(C(F)(F)F)cn3C)cc2)c2[nH]cnc2n1 [Example 34, 2-(4-methoxypyridin-3-yl)-N-(4-(1-methyl-4-(trifluoromethyl)-1H-imidazol-2-yl)benzyl)-7H-purin-6-amine]		inhibition at 10 µM: > 75%
Cn1cc(C(F)(F)F)nc1-c1ccc(CNc2nc(N3CCOCC3)nc3nc[nH]c23)cc1 [Example 36, N-(4-(1-methyl-4-(trifluoromethyl)-1H-imidazol-2-yl)benzyl)-2-morpholino-7H-purin-6-amine]		inhibition at 10 µM: 50 to 75%
COc1ncnc(C2CC2)c1-c1nc(NCc2ccc(-c3nc(C(F)(F)F)cn3C)cc2)c2ncn(C)c2n1 [Example 37, 2-(4-cyclopropyl-6-methoxypyrimidin-5-yl)-9-methyl-N-(4-(1-methyl-4-(trifluoromethyl)-1H-imidazol-2-yl)benzyl)-9H-purin-6-amine]		inhibition at 10 µM: > 75%
Cc1cccc(-c2nc(NCc3ccc(-c4nc(C(F)(F)F)cn4C)cc3)c3[nH]cnc3n2)c1Cl [Example 38, 2-(2-chloro-3-methylphenyl)-N-(4-(1-methyl-4-(trifluoromethyl)-1H-imidazol-2-yl)benzyl)-7H-purin-6-amine]	50 to 75%	
Cn1cc(C(F)(F)F)nc1-c1ccc(CNc2nc(-c3cc(Cl)cc(Cl)c3)nc3nc[nH]c23)cc1 [Example 39, 2-(3,5-dichlorophenyl)-N-(4-(1-methyl-4-(trifluoromethyl)-1H-imidazol-2-yl)benzyl)-7H-purin-6-amine]	50 to 75%	
Cn1cc(C(F)(F)F)nc1-c1ccc(CNc2nc(-c3ccc(F)cc3F)nc3nc[nH]c23)cc1 [Example 40, 2-(2,4-difluorophenyl)-N-(4-(1-methyl-4-(trifluoromethyl)-1H-imidazol-2-yl)benzyl)-7H-purin-6-amine]	50 to 75%	
Cn1cc(C(F)(F)F)nc1-c1ccc(CNc2nc(-c3cc(F)cc(F)c3)nc3nc[nH]c23)cc1 [Example 41, 2-(3,5-difluorophenyl)-N-(4-(1-methyl-4-(trifluoromethyl)-1H-imidazol-2-yl)benzyl)-7H-purin-6-amine]	50 to 75%	
Cn1cc(C(F)(F)F)nc1-c1ccc(CNc2nc(-c3ccc(Cl)cc3Cl)nc3nc[nH]c23)cc1 [Example 42, 2-(2,4-dichlorophenyl)-N-(4-(1-methyl-4-(trifluoromethyl)-1H-imidazol-2-yl)benzyl)-7H-purin-6-amine]	50 to 75%	
COc1ccc(-c2nc(NCc3ccc(-c4nc(C(F)(F)F)cn4C)cc3)c3[nH]cnc3n2)c(OC)n1 [Example 43, 2-(2,6-dimethoxypyridin-3-yl)-N-(4-(1-methyl-4-(trifluoromethyl)-1H-imidazol-2-yl)benzyl)-7H-purin-6-amine]	50 to 75%	
Cn1cc(C(F)(F)F)nc1-c1ccc(CNc2nc(-c3cc(C(F)(F)F)ccc3F)nc3nc[nH]c23)cc1 [Example 44, 2-(2-fluoro-5-(trifluoromethyl)phenyl)-N-(4-(1-methyl-4-(trifluoromethyl)-1H-imidazol-2-yl)benzyl)-7H-purin-6-amine]	50 to 75%	

The next lines start with results.

inhibition at 1 µM	SMILES	further results
50 to 75%	Cn1cc(C(F)(F)F)nc1-c1ccc(CNc2nc(-c3ccccc3C(F)(F)F)nc3nc[nH]c23)cc1 [Example 45, N-(4-(1-methyl-4-(trifluoromethyl)-1H-imidazol-2-yl)benzyl)-2-(2-(trifluoromethyl)phenyl)-7H-purin-6-amine]	
50 to 75%	Cn1cc(C(F)(F)F)nc1-c1ccc(CNc2nc(-c3cccc(OC(F)(F)F)c3)nc3nc[nH]c23)cc1 [Example 46, N-(4-(1-methyl-4-(trifluoromethyl)-1H-imidazol-2-yl)benzyl)-2-(3-(trifluoromethoxy)phenyl)-7H-purin-6-amine]	
50 to 75%	Cn1cc(C(F)(F)F)nc1-c1ccc(CNc2nc(-c3ccc(OC(F)(F)F)cc3)nc3nc[nH]c23)cc1 [Example 47, N-(4-(1-methyl-4-(trifluoromethyl)-1H-imidazol-2-yl)benzyl)-2-(4-(trifluoromethoxy)phenyl)-7H-purin-6-amine]	
50 to 75%	COc1cccc(-c2nc(NCc3ccc(-c4nc(C(F)(F)F)cn4C)cc3)c3[nH]cnc3n2)c1F [Example 48, 2-(2-fluoro-3-methoxyphenyl)-N-(4-(1-methyl-4-(trifluoromethyl)-1H-imidazol-2-yl)benzyl)-7H-purin-6-amine]	
50 to 75%	Cn1cc(C(F)(F)F)nc1-c1ccc(CNc2nc(-c3ccc(F)c(C#N)c3)nc3nc[nH]c23)cc1 [Example 49, 2-fluoro-5-(6-((4-(1-methyl-4-(trifluoromethyl)-1H-imidazol-2-yl)benzyl)amino)-7H-purin-2-yl)benzonitrile]	
50 to 75%	Cc1cc(C)cc(-c2nc(NCc3ccc(-c4nc(C(F)(F)F)cn4C)cc3)c3[nH]cnc3n2)c1 [Example 50, 2-(3,5-dimethylphenyl)-N-(4-(1-methyl-4-(trifluoromethyl)-1H-imidazol-2-yl)benzyl)-7H-purin-6-amine]	
50 to 75%	COc1ccc(-c2nc(NCc3ccc(-c4nc(C(F)(F)F)cn4C)cc3)c3[nH]cnc3n2)cc1OC [Example 51, 2-(3,4-dimethoxyphenyl)-N-(4-(1-methyl-4-(trifluoromethyl)-1H-imidazol-2-yl)benzyl)-7H-purin-6-amine]	
50 to 75%	COc1cc(-c2nc(NCc3ccc(-c4nc(C(F)(F)F)cn4C)cc3)c3[nH]cnc3n2)ccc1F [Example 52, 2-(4-fluoro-3-methoxyphenyl)-N-(4-(1-methyl-4-(trifluoromethyl)-1H-imidazol-2-yl)benzyl)-7H-purin-6-amine]	
50 to 75%	COc1ccc(-c2nc(NCc3ccc(-c4nc(C(F)(F)F)cn4C)cc3)c3[nH]cnc3n2)c(OC)c1 [Example 53, 2-(2,4-dimethoxyphenyl)-N-(4-(1-methyl-4-(trifluoromethyl)-1H-imidazol-2-yl)benzyl)-7H-purin-6-amine]	
50 to 75%	Cn1cc(C(F)(F)F)nc1-c1ccc(CNc2nc(-c3cccc(F)c3C(F)(F)F)nc3nc[nH]c23)cc1 [Example 54, 2-(3-fluoro-2-(trifluoromethyl)phenyl)-N-(4-(1-methyl-4-(trifluoromethyl)-1H-imidazol-2-yl)benzyl)-7H-purin-6-amine]	
50 to 75%	Cn1cc(C(F)(F)F)nc1-c1ccc(CNc2nc(-c3cccc(C(N)=O)c3)nc3nc[nH]c23)cc1 [Example 55, 3-(6-((4-(1-methyl-4-(trifluoromethyl)-1H-imidazol-2-yl)benzyl)amino)-7H-purin-2-yl)benzamide]	
50 to 75%	CSc1ccc(-c2nc(NCc3ccc(-c4nc(C(F)(F)F)cn4C)cc3)c3[nH]cnc3n2)cc1 [Example 56, N-(4-(1-methyl-4-(trifluoromethyl)-1H-imidazol-2-yl)benzyl)-2-(4-(methylthio)phenyl)-7H-purin-6-amine]	
50 to 75%	Cn1cc(C(F)(F)F)nc1-c1ccc(CNc2nc(-c3ccc(C(F)(F)F)cc3)nc3nc[nH]c23)cc1 [Example 57, N-(4-(1-methyl-4-(trifluoromethyl)-1H-imidazol-2-yl)benzyl)-2-(4-(trifluoromethyl)phenyl)-7H-purin-6-amine]	
50 to 75%	Cn1cc(C(F)(F)F)nc1-c1ccc(CNc2nc(-c3cccc(C(F)(F)F)c3)nc3nc[nH]c23)cc1 [Example 58, N-(4-(1-methyl-4-(trifluoromethyl)-1H-imidazol-2-yl)benzyl)-2-(3-(trifluoromethyl)phenyl)-7H-purin-6-amine]	
